According to ChEMBL document CHEMBL1149542, “Carbonic anhydrase inhibitors: inhibition of human, bacterial, and archaeal isozymes with benzene-1,3-disulfonamides--solution and crystallographic studies” (Bioorg Med Chem Lett, 2007):

Columns and labels:
[1] = biological target: Carbonic anhydrase 13 (Mus musculus) (UniProt Q9D6N1); assay: Inhibition of mouse CA13
[2] = biological target: Carbonic anhydrase 9 (Homo sapiens) (UniProt Q16790)
Description: Inhibition of human CA9 catalytic domain

[3] = biological target: Carbonic anhydrase 12 (Homo sapiens) (UniProt O43570)
[4] = biological target: Carbonic anhydrase 4 (Homo sapiens) (UniProt P22748)
[5] = biological target: Carbonic anhydrase 5B, mitochondrial (Homo sapiens) (UniProt Q9Y2D0)
[6] = biological target: Carbonic anhydrase 6 (Homo sapiens) (UniProt P23280)
[7] = biological target: Carbonic anhydrase 5A, mitochondrial (Homo sapiens) (UniProt P35218)
[8] = biological target: Carbonic anhydrase 14 (Homo sapiens) (UniProt Q9ULX7)
[9] = tested on: Methanosarcina thermophila
Description: Inhibition of Methanosarcina thermophila gamma CA

[10] = tested on: Helicobacter pylori
Description: Inhibition of Helicobacter pylori beta CA

[11] = tested on: Helicobacter pylori; remark: listed apart in the source
Description: Inhibition of Helicobacter pylori alpha CA

[12] = biological target: Carbonic anhydrase 1 (Homo sapiens) (UniProt P00915)
[13] = biological target: Carbonic anhydrase 7 (Homo sapiens) (UniProt P43166)
Sequence of Carbonic anhydrase 7 (Homo sapiens) (P43166 whole entry): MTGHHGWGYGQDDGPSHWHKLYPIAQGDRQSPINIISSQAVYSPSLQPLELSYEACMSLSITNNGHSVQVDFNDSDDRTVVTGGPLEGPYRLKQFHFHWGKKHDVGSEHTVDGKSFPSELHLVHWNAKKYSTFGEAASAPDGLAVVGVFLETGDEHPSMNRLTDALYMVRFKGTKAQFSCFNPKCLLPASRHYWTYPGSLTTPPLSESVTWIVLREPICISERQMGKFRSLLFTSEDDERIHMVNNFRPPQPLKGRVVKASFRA

Sequence of Carbonic anhydrase 5A, mitochondrial (Homo sapiens) (P35218 whole entry): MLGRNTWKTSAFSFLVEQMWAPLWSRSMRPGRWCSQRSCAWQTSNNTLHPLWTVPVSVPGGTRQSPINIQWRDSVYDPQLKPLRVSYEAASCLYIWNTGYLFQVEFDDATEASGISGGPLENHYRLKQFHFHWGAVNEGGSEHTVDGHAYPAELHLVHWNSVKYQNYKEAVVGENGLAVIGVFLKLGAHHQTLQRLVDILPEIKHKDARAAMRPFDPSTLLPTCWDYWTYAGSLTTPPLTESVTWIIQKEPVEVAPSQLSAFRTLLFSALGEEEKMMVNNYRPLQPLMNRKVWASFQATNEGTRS
Sequence of Carbonic anhydrase 14 (Homo sapiens) (Q9ULX7 whole entry): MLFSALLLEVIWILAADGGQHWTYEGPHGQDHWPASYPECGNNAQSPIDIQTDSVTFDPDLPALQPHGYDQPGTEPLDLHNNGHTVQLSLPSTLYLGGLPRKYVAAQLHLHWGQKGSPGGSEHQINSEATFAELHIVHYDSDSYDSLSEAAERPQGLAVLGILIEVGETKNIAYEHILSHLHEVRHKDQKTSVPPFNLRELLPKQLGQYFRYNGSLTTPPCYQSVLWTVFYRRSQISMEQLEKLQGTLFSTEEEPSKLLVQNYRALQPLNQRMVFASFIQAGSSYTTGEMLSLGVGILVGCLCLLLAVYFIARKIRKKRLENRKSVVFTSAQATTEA
Sequence of Carbonic anhydrase 6 (Homo sapiens) (P23280 whole entry): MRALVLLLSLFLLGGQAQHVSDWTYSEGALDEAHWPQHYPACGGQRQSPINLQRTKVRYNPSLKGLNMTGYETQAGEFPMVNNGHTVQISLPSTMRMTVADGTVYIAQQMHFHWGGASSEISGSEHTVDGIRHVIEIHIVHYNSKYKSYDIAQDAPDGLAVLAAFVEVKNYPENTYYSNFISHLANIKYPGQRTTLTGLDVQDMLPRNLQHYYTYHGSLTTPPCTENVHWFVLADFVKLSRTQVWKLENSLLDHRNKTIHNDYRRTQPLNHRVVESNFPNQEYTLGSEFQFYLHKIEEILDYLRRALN
Sequence of Carbonic anhydrase 5B, mitochondrial (Homo sapiens) (Q9Y2D0 whole entry): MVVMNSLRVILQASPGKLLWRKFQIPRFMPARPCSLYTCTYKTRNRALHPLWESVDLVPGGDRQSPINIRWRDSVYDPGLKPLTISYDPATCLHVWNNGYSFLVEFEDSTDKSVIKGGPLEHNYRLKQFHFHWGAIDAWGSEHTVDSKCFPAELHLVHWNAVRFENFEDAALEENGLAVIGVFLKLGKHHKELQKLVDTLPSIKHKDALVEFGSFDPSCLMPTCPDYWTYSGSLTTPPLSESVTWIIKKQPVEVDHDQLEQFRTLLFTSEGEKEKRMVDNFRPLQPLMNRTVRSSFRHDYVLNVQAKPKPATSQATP
Sequence of Carbonic anhydrase 12 (Homo sapiens) (O43570 whole entry): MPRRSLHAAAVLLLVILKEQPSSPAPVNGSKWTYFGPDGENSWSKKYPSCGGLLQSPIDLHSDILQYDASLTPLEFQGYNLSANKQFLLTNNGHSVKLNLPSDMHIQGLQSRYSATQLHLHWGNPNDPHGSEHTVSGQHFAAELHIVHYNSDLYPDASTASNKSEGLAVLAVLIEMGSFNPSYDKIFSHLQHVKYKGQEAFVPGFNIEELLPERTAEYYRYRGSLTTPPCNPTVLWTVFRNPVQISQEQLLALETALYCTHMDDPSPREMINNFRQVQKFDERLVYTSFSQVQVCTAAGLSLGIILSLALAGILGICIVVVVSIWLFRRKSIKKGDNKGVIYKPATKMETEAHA
Sequence of Carbonic anhydrase 13 (Mus musculus) (Q9D6N1 whole entry, looked up): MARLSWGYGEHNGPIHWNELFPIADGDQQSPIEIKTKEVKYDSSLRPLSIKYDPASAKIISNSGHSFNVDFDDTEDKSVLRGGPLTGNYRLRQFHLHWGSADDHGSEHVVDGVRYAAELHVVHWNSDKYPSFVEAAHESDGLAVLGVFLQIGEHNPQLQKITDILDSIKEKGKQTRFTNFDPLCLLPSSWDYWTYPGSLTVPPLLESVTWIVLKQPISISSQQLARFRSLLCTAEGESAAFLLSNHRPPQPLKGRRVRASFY
Sequence of Carbonic anhydrase 4 (Homo sapiens) (P22748 whole entry): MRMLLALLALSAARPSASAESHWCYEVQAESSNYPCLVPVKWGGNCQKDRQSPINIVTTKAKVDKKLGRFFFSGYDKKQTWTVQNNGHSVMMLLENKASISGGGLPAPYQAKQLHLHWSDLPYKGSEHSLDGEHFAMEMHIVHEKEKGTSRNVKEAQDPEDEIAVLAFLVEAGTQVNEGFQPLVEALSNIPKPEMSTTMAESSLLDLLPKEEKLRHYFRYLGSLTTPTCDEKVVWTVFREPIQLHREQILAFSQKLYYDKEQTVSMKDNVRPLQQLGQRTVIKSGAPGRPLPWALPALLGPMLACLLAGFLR
Sequence of Carbonic anhydrase 1 (Homo sapiens) (P00915 2-261 limits assumed): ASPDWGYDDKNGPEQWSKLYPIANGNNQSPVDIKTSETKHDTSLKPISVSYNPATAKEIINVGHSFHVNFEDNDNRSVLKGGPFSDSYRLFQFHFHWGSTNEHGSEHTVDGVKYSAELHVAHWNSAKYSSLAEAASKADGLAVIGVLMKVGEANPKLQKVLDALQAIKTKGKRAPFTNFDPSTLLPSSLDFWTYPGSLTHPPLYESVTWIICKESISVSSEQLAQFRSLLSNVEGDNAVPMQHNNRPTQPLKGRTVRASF

Row | Kinact [1] [µM] | Kinact [2] [nM] | Kinact [3] [nM] | Kinact [4] [nM] | Kinact [5] [nM] | Kinact [6] [nM] | Kinact [7] [nM] | Kinact [8] [nM] | Kinact [9] [nM] | Kinact [10] [nM] | Kinact [11] [nM] | Kinact [12] [nM] | Kinact [13] [nM] | Compound
1 | 3.89 | 367 | 355 | 427 | 603 | 3660 | 4220 | 4100 | – | – | – | – | – | NS(=O)(=O)c1cc2c(cc1Cl)NC(C(Cl)Cl)NS2(=O)=O (stereo unspecified)
2 | – | – | – | – | 30 | 0.9 | 50 | 24 | 460 | 128 | 210 | – | – | CCN[C@H]1CN(CCCOC)S(=O)(=O)c2sc(S(N)(=O)=O)cc21
3 | – | – | – | – | – | – | 499 | – | – | – | – | 62 | 513 | NS(=O)(=O)c1cc(C(=O)O)c(NCC2CCCO2)cc1Cl (stereo unspecified)
4 | – | – | – | – | – | – | – | – | 140 | 176 | 225 | – | – | CC(=O)/N=c1/sc(S(N)(=O)=O)nn1C
